Reference: ChEMBL document CHEMBL1142494, “Pharmacophore modeling and molecular docking led to the discovery of inhibitors of human immunodeficiency virus-1 replication targeting the human cellular aspartic acid-glutamic acid-alanine-aspartic acid box polypeptide 3” (J Med Chem, 2008)
Calls of active or inactive are those of the source. The rule behind the calls is not given here.

Key:
[1] = target: ATP-dependent RNA helicase DDX3X (Homo sapiens) (UniProt O00571); assay: Inhibition of ATPase activity in human recombinant DDX3 expressed in Escherichia coli by luciferase-based luminescence assay in presence of ATP
Chain of ATP-dependent RNA helicase DDX3X (Homo sapiens) (O00571 2-662 limits assumed): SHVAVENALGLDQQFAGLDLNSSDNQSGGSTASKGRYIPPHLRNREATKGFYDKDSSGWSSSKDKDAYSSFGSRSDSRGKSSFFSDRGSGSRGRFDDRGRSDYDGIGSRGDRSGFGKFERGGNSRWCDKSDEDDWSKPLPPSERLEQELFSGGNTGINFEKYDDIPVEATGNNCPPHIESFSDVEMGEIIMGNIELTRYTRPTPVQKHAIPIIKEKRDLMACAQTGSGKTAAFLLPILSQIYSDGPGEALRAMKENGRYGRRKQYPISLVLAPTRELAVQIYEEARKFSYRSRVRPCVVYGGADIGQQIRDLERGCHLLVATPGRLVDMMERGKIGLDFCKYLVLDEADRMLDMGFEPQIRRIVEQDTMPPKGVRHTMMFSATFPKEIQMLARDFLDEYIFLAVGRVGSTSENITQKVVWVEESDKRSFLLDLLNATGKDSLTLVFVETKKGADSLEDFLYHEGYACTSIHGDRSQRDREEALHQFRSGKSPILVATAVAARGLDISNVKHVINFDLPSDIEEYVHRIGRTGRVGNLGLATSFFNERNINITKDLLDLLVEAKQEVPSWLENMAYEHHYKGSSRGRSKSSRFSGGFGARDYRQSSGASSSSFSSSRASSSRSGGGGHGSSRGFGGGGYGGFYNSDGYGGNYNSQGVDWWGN

[2] = target: Proto-oncogene tyrosine-protein kinase Src (Homo sapiens) (UniProt P12931); assay: Inhibition of c-Src upto 100 uM
Chain of Proto-oncogene tyrosine-protein kinase Src (Homo sapiens) (P12931 2-536 limits assumed): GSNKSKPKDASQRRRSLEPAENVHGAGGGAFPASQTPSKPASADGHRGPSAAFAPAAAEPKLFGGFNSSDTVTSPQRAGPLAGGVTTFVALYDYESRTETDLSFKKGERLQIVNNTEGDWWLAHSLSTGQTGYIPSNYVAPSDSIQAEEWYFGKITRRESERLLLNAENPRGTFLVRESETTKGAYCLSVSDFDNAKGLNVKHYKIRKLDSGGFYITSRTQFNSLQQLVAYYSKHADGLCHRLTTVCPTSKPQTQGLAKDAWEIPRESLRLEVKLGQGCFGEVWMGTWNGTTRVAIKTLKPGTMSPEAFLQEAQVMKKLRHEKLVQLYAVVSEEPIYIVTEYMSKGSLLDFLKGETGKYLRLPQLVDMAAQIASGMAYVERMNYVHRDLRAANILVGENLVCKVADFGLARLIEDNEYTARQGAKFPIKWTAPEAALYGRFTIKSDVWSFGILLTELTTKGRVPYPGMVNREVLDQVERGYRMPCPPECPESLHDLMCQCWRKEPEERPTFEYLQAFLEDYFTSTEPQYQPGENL

[3] = tested on: Hepacivirus hominis; assay: Inhibition of HCV NS3 ATPase/helicase upto 100 uM
[4] = target: Polynucleotide kinase (Enterobacteria phage T4) (UniProt P06855); assay: Inhibition of T4 polynucleotide kinase upto 100 uM; conditions: Tequatrovirus T4
Chain of Polynucleotide kinase (Enterobacteria phage T4) (P06855 whole entry): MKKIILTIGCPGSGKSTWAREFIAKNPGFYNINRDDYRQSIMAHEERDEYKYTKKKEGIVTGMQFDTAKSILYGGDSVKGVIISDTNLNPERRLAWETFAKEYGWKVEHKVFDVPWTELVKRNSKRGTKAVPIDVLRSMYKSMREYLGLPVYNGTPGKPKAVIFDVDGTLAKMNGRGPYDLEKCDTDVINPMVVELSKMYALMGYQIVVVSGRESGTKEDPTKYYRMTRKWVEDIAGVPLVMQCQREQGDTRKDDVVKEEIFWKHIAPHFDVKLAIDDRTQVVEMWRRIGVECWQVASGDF

SMILES | Activity [1] | also measured
Cc1ccc(/C=C2\SC(=S)N(CCC(=O)Nc3ccccc3O)C2=O)cc1 | inactive | 
N#C/C(=C\c1ccc(-c2ccccc2Cl)o1)c1nn(-c2ccccc2)c(N)c1C#N | inactive | 
O=C(CCN1C(=O)/C(=C/c2cccc(Br)c2)SC1=S)Nc1ccccc1O |  | Activity [2]: inactive; Activity [3]: inactive; Activity [4]: inactive
O=C(CCN1C(=O)/C(=C/c2ccccc2)SC1=S)Nc1ccccc1O | inactive | 
O=C(CCN1C(=O)/C(=C/c2ccccc2Cl)SC1=S)Nc1ccccc1O | inactive | 
Cc1ccc(/C=C2\SC(=S)N(CCC(=O)Nc3cccc(Cl)c3O)C2=O)cc1 | inactive | 
Cc1ccc(-c2ccc(/C=C(\C#N)c3n[nH]c(N)c3C#N)o2)c([N+](=O)[O-])c1 | inactive | 
COc1ccccc1NC(=O)CCN1C(=O)/C(=C/c2cccc(Br)c2)SC1=S | inactive | 

Now from value to compound, other results behind:

Activity [1] | SMILES | also measured
inactive | N#C/C(=C\c1ccc(-c2ccc(C(=O)O)cc2)o1)c1n[nH]c(N)c1C#N | 
inactive | O=C(CN1C(=O)/C(=C/c2cccc(Br)c2)SC1=S)Nc1cccc(O)c1 | 
inactive | N#C/C(=C\c1ccc(-c2ccccc2[N+](=O)[O-])o1)c1nn(CCO)c(N)c1C#N | 
inactive | O=C(CCN1C(=O)/C(=C/c2ccccc2)SC1=S)Nc1cccc(O)c1 | 
